Data as given in PMC6450621, “Changes of drug pharmacokinetics mediated by downregulation of kidney organic cation transporters Mate1 and Oct2 in a rat model of hyperuricemia” (PLoS ONE, 2019).
Values joined by “and” are separate entries in the source; they are usually repeats but may differ in a detail not shown here. Equal entries are not always repeated.

Key:
[1] = Pharmacokinetic study after intravenous administration in control and hyperuricemic rats (plasma, urine, kidney); details: for Kp, kidney: 4 h after iv metformin 30 mg/kg; for CL renal / concentration at 0 min / concentration at 0.5 min / concentration at 2 min / concentration at 5 min / concentration at 30 min / concentration at 60 min / AUC(0-t) / AUC(0-inf) / dose excreted at 10 min / dose excreted at 20 min / dose excreted at 30 min / dose excreted at 60 min / dose excreted at 120 min / dose excreted at 240 min / dose excreted: rat; for CL renal: plasma and urine, CLR; for CL renal / AUC(0-t) / AUC(0-inf): iv; for concentration at 0 min / concentration at 0.5 min / concentration at 2 min / concentration at 5 min / concentration at 30 min / concentration at 60 min / AUC(0-t) / AUC(0-inf): plasma; for concentration at 0 min / concentration at 0.5 min / concentration at 2 min / concentration at 5 min / concentration at 30 min / concentration at 60 min / dose excreted at 10 min / dose excreted at 20 min / dose excreted at 30 min / dose excreted at 60 min / dose excreted at 120 min / dose excreted at 240 min / dose excreted: intravenous; for concentration at 0 min / concentration at 0.5 min / concentration at 2 min / concentration at 5 min / concentration at 30 min / concentration at 60 min: Plasma concentration; for AUC(0-inf): AUCinf; for dose excreted at 10 min / dose excreted at 20 min / dose excreted at 30 min / dose excreted at 60 min / dose excreted at 120 min / dose excreted at 240 min / dose excreted: urine; for dose excreted at 10 min / dose excreted at 20 min / dose excreted at 30 min / dose excreted at 60 min / dose excreted at 120 min / dose excreted at 240 min: Urinary recovery (cumulative); for dose excreted: Urinary Recovery;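 for all read-outs here: Pentobarbital-anesthetized rats with cannulated bladder, jugular plasma, timed urine and saline kidney homogenate assayed by HPLC or LC-MS/MS, Kp as kidney over plasma level at 4 h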
Description: (§1) Rats were anesthetized with pentobarbital, and the bladder was cannulated with polyethylene tubing (inside diameter 0.5 mm, outside diameter 0.8 mm). […] Blood was drawn through the jugular vein, and plasma was obtained by centrifugation at 3,000 rpm for 10 min at 4°C. Urine was collected at the designated times. […] All samples were stored at -80°C until measurement.
(§2) If necessary, plasma and urine were diluted 10- to 100-fold and 10- to 10000-fold with saline, respectively, for high-performance liquid chromatography (HPLC) or liquid chromatography/tandem mass spectrometry (LC-MS/MS) measurement. […] Prepared samples were mixed for 1 min and centrifuged at 15,000 rpm for 5 min at 4°C. The resultant supernatant was used for LC-MS/MS analysis. The LC-MS/MS system consisted of a triple-quadrupole mass spectrometer (API 3200^TM, SCIEX, Foster City, CA) coupled with an ultrafast liquid chromatography system (LC-20AD, Shimadzu, Kyoto, Japan). […] For metformin, the mobile phase consisted of 0.1% formic acid and acetonitrile (30 : 70), and the flow rate was 0.4 mL/min.
(§3) The plasma concentration-time data were analyzed by non-compartmental analysis. The area under the plasma concentration-time curve (AUC0-4) was obtained by application of the trapezoidal rule from time 0 to 4 h. AUC from 0 to infinity (AUCinf) was estimated by extrapolation to infinity.

[2] = metformin; used for control and hyperuricemic rats; cited from earlier work
in vivo = details: rat, plasma, intravenous
Description: as §1, §2, §3

[3] = control rats, 0 min after iv metformin 30 mg/kg or cephalexin 10 mg/kg, individual rat
[4] = control rats, 0.5 min after iv metformin 30 mg/kg or cephalexin 10 mg/kg (creatinine endogenous), individual rat
[5] = control rats, 2 min after iv metformin 30 mg/kg or cephalexin 10 mg/kg, individual rat
[6] = control rats, 5 min after iv metformin 30 mg/kg or cephalexin 10 mg/kg, individual rat
[7] = control rats, 30 min after iv metformin 30 mg/kg or cephalexin 10 mg/kg (creatinine endogenous), individual rat
[8] = control rats, 60 min after iv metformin 30 mg/kg or cephalexin 10 mg/kg (creatinine endogenous), individual rat
[9] = control rats, iv metformin 30 mg/kg, individual rat
[10] = hyperuricemic rats, 0 min after iv metformin 30 mg/kg or cephalexin 10 mg/kg, individual rat
[11] = hyperuricemic rats, 0.5 min after iv metformin 30 mg/kg or cephalexin 10 mg/kg (creatinine endogenous), individual rat
[12] = hyperuricemic rats, 2 min after iv metformin 30 mg/kg or cephalexin 10 mg/kg, individual rat
[13] = hyperuricemic rats, 30 min after iv metformin 30 mg/kg or cephalexin 10 mg/kg (creatinine endogenous), individual rat
[14] = hyperuricemic rats, 60 min after iv metformin 30 mg/kg or cephalexin 10 mg/kg (creatinine endogenous), individual rat
[15] = hyperuricemic rats, iv metformin 30 mg/kg, individual rat
[16] = 30 mg/kg, control rats, iv metformin 30 mg/kg, individual rat
[17] = 30 mg/kg, hyperuricemic rats, iv metformin 30 mg/kg, individual rat
[18] = control rats, iv metformin 30 mg/kg or cephalexin 10 mg/kg, mean n=3
[19] = hyperuricemic rats, iv metformin 30 mg/kg or cephalexin 10 mg/kg, mean n=3

Plasma concentration [1, 3]: 750 µM and 1198 µM | Plasma concentration [1, 4]: 571 µM and 817 µM | Plasma concentration [1, 5]: 293 µM and 304 µM | Plasma concentration [1, 6]: 154 µM and 164 µM | Plasma concentration [1, 7]: 33.2 µM and 34.5 µM | Plasma concentration [1, 8]: 13.0 µM and 12.8 µM | Urinary recovery (cumulative) ([1]; control rats, 60 min after iv metformin 30 mg/kg, individual rat): 44.6 % of dose and 64.4 % of dose | Urinary recovery (cumulative) ([1]; control rats, 120 min after iv metformin 30 mg/kg, individual rat): 63.3 % of dose and 72.5 % of dose | Urinary recovery (cumulative) ([1]; control rats, 240 min after iv metformin 30 mg/kg, individual rat): 72.0 % of dose and 76.4 % of dose | Kp, kidney ([1]; control rats, individual rat): 2.8 and 35.8 and 11.4 | AUC0-4 [1, 9]: 5208 µM·min and 5490 µM·min | AUCinf [1, 9]: 5393 µM·min and 5550 µM·min | CLR [1, 9]: 23.6 mL/min/kg and 23.7 mL/min/kg | Plasma concentration [1, 10]: 796 µM and 923 µM | Plasma concentration [1, 11]: 780 µM and 862 µM | Plasma concentration [1, 12]: 336 µM and 407 µM | Plasma concentration ([1]; hyperuricemic rats, 5 min after iv metformin 30 mg/kg or cephalexin 10 mg/kg, individual rat): 86 µM and 154 µM and 193 µM | Urinary recovery (cumulative) ([1]; hyperuricemic rats, 10 min after iv metformin 30 mg/kg, individual rat): 16.7 % of dose and 11.6 % of dose | Urinary recovery (cumulative) ([1]; hyperuricemic rats, 20 min after iv metformin 30 mg/kg, individual rat): 26.1 % of dose and 20.0 % of dose | Plasma concentration [1, 13]: 54.0 µM and 44.1 µM | Urinary recovery (cumulative) ([1]; hyperuricemic rats, 30 min after iv metformin 30 mg/kg, individual rat): 31.6 % of dose and 27.5 % of dose | Plasma concentration [1, 14]: 26.4 µM and 27.5 µM | Urinary recovery (cumulative) ([1]; hyperuricemic rats, 60 min after iv metformin 30 mg/kg, individual rat): 41.1 % of dose and 37.0 % of dose | Urinary recovery (cumulative) ([1]; hyperuricemic rats, 120 min after iv metformin 30 mg/kg, individual rat): 49.6 % of dose and 47.8 % of dose | Urinary recovery (cumulative) ([1]; hyperuricemic rats, 240 min after iv metformin 30 mg/kg, individual rat): 63.2 % of dose and 59.1 % of dose | Kp, kidney ([1]; hyperuricemic rats, individual rat): 94.7 and 122.2 and 54.1 | AUC0-4 [1, 15]: 7033 µM·min and 4854 µM·min | AUCinf [1, 15]: 7159 µM·min and 4997 µM·min | CLR [1, 15]: 14.3 mL/min/kg and 23.7 mL/min/kg | (CLR/fu)/CLInulin Fold Change ([1]; hyperuricemic vs control rats): 1.00 | AUC0-4 Fold Change ([1]; hyperuricemic vs control rats): 1.10 | AUCinf Fold Change ([1]; hyperuricemic vs control rats): 1.10 | CLR Fold Change ([1]; hyperuricemic vs control rats): 0.80 | Kp, kidney Fold Change ([1]; hyperuricemic vs control rats): 5.44 | Urinary Recovery Fold Change ([1]; hyperuricemic vs control rats): 0.85 | CL renal [1, 16]: 21.7 mL/min/kg | CL renal [1, 17]: 16.8 mL/min/kg | CL renal ([1]; control rats, iv metformin 30 mg/kg or cephalexin 10 mg/kg, creatinine endogenous, mean n=3): 23 mL/min/kg | CL renal ([1]; hyperuricemic rats, iv metformin 30 mg/kg or cephalexin 10 mg/kg, creatinine endogenous, mean n=3): 18.3 mL/min/kg | concentration at 0 min [1, 3]: 1270 µM | concentration at 0 min ([1]; control rats, 0 min after iv metformin 30 mg/kg or cephalexin 10 mg/kg, mean n=3): 1070 µM | concentration at 0.5 min [1, 4]: 871 µM | concentration at 0.5 min ([1]; control rats, 0.5 min after iv metformin 30 mg/kg or cephalexin 10 mg/kg (creatinine endogenous), mean n=3): 753 µM | concentration at 2 min [1, 5]: 385 µM | concentration at 2 min ([1]; control rats, 2 min after iv metformin 30 mg/kg or cephalexin 10 mg/kg, mean n=3): 328 µM | concentration at 5 min [1, 6]: 159 µM | concentration at 5 min ([1]; control rats, 5 min after iv metformin 30 mg/kg or cephalexin 10 mg/kg, mean n=3): 159 µM | concentration at 30 min [1, 7]: 37 µM | concentration at 30 min ([1]; control rats, 30 min after iv metformin 30 mg/kg or cephalexin 10 mg/kg (creatinine endogenous), mean n=3): 34.9 µM | concentration at 60 min [1, 8]: 14.4 µM | concentration at 60 min ([1]; control rats, 60 min after iv metformin 30 mg/kg or cephalexin 10 mg/kg (creatinine endogenous), mean n=3): 13.4 µM | concentration at 0 min [1, 10]: 676 µM | concentration at 0 min ([1]; hyperuricemic rats, 0 min after iv metformin 30 mg/kg or cephalexin 10 mg/kg, mean n=3): 798 µM | concentration at 0.5 min [1, 11]: 578 µM | concentration at 0.5 min ([1]; hyperuricemic rats, 0.5 min after iv metformin 30 mg/kg or cephalexin 10 mg/kg (creatinine endogenous), mean n=3): 740 µM | concentration at 2 min [1, 12]: 267 µM | concentration at 2 min ([1]; hyperuricemic rats, 2 min after iv metformin 30 mg/kg or cephalexin 10 mg/kg, mean n=3): 337 µM | concentration at 5 min ([1]; hyperuricemic rats, 5 min after iv metformin 30 mg/kg or cephalexin 10 mg/kg, mean n=3): 144 µM | concentration at 30 min [1, 13]: 30 µM | concentration at 30 min ([1]; hyperuricemic rats, 30 min after iv metformin 30 mg/kg or cephalexin 10 mg/kg (creatinine endogenous), mean n=3): 42.7 µM | concentration at 60 min [1, 14]: 20.6 µM | concentration at 60 min ([1]; hyperuricemic rats, 60 min after iv metformin 30 mg/kg or cephalexin 10 mg/kg (creatinine endogenous), mean n=3): 24.9 µM | AUC(0-t) ([1]; 30 mg/kg, AUC0-4, control rats, iv metformin 30 mg/kg, individual rat): 98.2 µM·h | AUC(0-t) ([1]; 30 mg/kg, AUC0-4, hyperuricemic rats, iv metformin 30 mg/kg, individual rat): 107 µM·h | AUC(0-inf) [1, 16]: 99.5 µM·h | AUC(0-inf) [1, 17]: 109 µM·h | AUC(0-t) ([1]; AUC0-4, control rats, iv metformin 30 mg/kg or cephalexin 10 mg/kg, creatinine endogenous, mean n=3): 92.2 µM·h | AUC(0-t) ([1]; AUC0-4, hyperuricemic rats, iv metformin 30 mg/kg or cephalexin 10 mg/kg, creatinine endogenous, mean n=3): 102 µM·h | AUC(0-inf) [1, 18]: 94 µM·h | AUC(0-inf) [1, 19]: 104 µM·h | dose excreted at 10 min ([1]; 30 mg/kg, control rats, 10 min after iv metformin 30 mg/kg, mean n=3): 17.8% | dose excreted at 20 min ([1]; 30 mg/kg, control rats, 20 min after iv metformin 30 mg/kg, mean n=3): 31.3% | dose excreted at 30 min ([1]; 30 mg/kg, control rats, 30 min after iv metformin 30 mg/kg, mean n=3): 41.2% | dose excreted at 60 min ([1]; 30 mg/kg, control rats, 60 min after iv metformin 30 mg/kg, individual rat): 57.8% | dose excreted at 60 min ([1]; 30 mg/kg, control rats, 60 min after iv metformin 30 mg/kg, mean n=3): 55.6% | dose excreted at 120 min ([1]; 30 mg/kg, control rats, 120 min after iv metformin 30 mg/kg, individual rat): 61.5% | dose excreted at 120 min ([1]; 30 mg/kg, control rats, 120 min after iv metformin 30 mg/kg, mean n=3): 65.7% | dose excreted at 240 min ([1]; 30 mg/kg, control rats, 240 min after iv metformin 30 mg/kg, individual rat): 75.1% | dose excreted at 10 min ([1]; 30 mg/kg, hyperuricemic rats, 10 min after iv metformin 30 mg/kg, individual rat): 15.5% | dose excreted at 10 min ([1]; 30 mg/kg, hyperuricemic rats, 10 min after iv metformin 30 mg/kg, mean n=3): 14.6% | dose excreted at 20 min ([1]; 30 mg/kg, hyperuricemic rats, 20 min after iv metformin 30 mg/kg, individual rat): 26.9% | dose excreted at 20 min ([1]; 30 mg/kg, hyperuricemic rats, 20 min after iv metformin 30 mg/kg, mean n=3): 24.3% | dose excreted at 30 min ([1]; 30 mg/kg, hyperuricemic rats, 30 min after iv metformin 30 mg/kg, individual rat): 35.7% | dose excreted at 30 min ([1]; 30 mg/kg, hyperuricemic rats, 30 min after iv metformin 30 mg/kg, mean n=3): 31.6% | dose excreted at 60 min ([1]; 30 mg/kg, hyperuricemic rats, 60 min after iv metformin 30 mg/kg, individual rat): 46% | dose excreted at 60 min ([1]; 30 mg/kg, hyperuricemic rats, 60 min after iv metformin 30 mg/kg, mean n=3): 41.4% | dose excreted at 120 min ([1]; 30 mg/kg, hyperuricemic rats, 120 min after iv metformin 30 mg/kg, individual rat): 56.1% | dose excreted at 120 min ([1]; 30 mg/kg, hyperuricemic rats, 120 min after iv metformin 30 mg/kg, mean n=3): 51.1% | dose excreted at 240 min ([1]; 30 mg/kg, hyperuricemic rats, 240 min after iv metformin 30 mg/kg, individual rat): 67.5% | dose excreted at 240 min ([1]; 30 mg/kg, hyperuricemic rats, 240 min after iv metformin 30 mg/kg, mean n=3): 63.3% | dose excreted [1, 18]: 74.5% | dose excreted [1, 19]: 63.3% | concentration at 15 min (in vivo): 67.3 µM | concentration at 120 min (in vivo): 3.94 µM
Compound: CN(C)C(=N)N=C(N)N [Metformin, metformin]
Urinary recovery (cumulative) ([1]; control rats, 20 min after iv metformin 30 mg/kg, individual rat): 26.0 % of dose and 21.2 % of dose and 46.7 % of dose | Urinary recovery (cumulative) ([1]; control rats, 30 min after iv metformin 30 mg/kg, individual rat): 43.9 % of dose and 27.9 % of dose and 51.8 % of dose | fu [2]: 0.85 [27]
